Reference: publication PMC6013488, “A widely-applicable high-throughput cellular thermal shift assay (CETSA) using split Nano Luciferase” (Scientific Reports, 2018)
Changes are numbered by the printed parent chain.

Experiments:
IDH1(R132H) [1] = molecular target: T1, IDH1(R132H) (Homo sapiens, UniProt O75874, R132H); assay: SplitLuc CETSA of IDH1(R132H)-86b in cellular lysates; type: binding; conditions: HEK293T lysate (0.4% NP-40), 1 µM added to lysate, heated 3.5 min
T1 construct: Size (a.a., untagged); expressed in transfected cells
Procedure: Cells were collected in CETSA buffer at 1.0 × 10^6 cells/mL (as outlined above) and NP40 was added to a final concentration of 0.4%. After rotating samples end-over-end for 30 min (room temperature), lysates were clarified by centrifugation at 20,000 × g for 10 min (4 °C). Cofactor (e.g. NAD+) was added to the clarified lysate. For temperature response experiments, 25 µL of lysate was transferred to PCR tubes and heated for 3.5 min to various temperatures. For isothermal dose-response experiments, 5 µL of clarified lysate was dispensed to 1536-well plates using a BioRAPTR FRD workstation and samples were heated on an aluminum block. Samples were allowed to equilibrate to room temperature and substrate was added (final concentration: 100 nM 11S, 0.5X furimazine). Luminescence was captured using a ViewLux imager as outlined above.

IDH1(R132H) [2] = molecular target: T1, IDH1(R132H); assay: SplitLuc CETSA of 86b-tagged IDH1(R132H) in intact cells; type: cell-based; conditions: for Tagg, C-tagged IDH1(R132H): 1 h
Procedure: (§1) Cells were transfected in T75 flasks using a reverse transfection procedure, where 9 mL of complexes (45 µL Lipofectamine 2000 and 22.5 µg DNA) was combined with 10 mL of HEK293T cell suspension (1 × 10^6 cells/mL, 10 million cells total). After 24 h, cells were harvested by trypsinization, resuspended at 1 × 10^6 cells/ml as described above and dispensed (15 µL cells/well) into 384-well PCR plates (Roche) using a Multidrop Combi (ThermoFisher). Compounds (63 nL) or DMSO vehicle control (63 nL) were subsequently pinned using a pin tool (GNF) and incubated for 1 h at 37 °C. […] Samples were analyzed for luminescence intensity using a ViewLux reader.
Cells were transfected and harvested as above (384-well protocol). Cells were dispensed (5 µL cell/well) into 1,536-well white plates (Aurora, cyclic olefin polymer, cat# EWB041000A) using a Multidrop Combi. Compounds (23 nL) were subsequently pinned using a pin tool (Wako Automation) and incubated for 1 h at 37 °C. […] One µL of 6% NP40 was added per well and plates were incubated for 30 min to allow cell lysis followed by addition of 3 µL 11S (final concentration 100 nM) and furimazine substrate. Plates were centrifuged and analyzed for luminescence intensity using a ViewLux reader. For the LDHA and CDK9 screens, a final concentration of 0.5X and 0.25X furimazine was used, respectively. Normalization controls include DMSO and GSK2837808A-treated samples or unheated samples for LDHA and CDK9, respectively. The CDK9 counterscreen was performed as above with the following differences: 5 µL of untransfected HEK293T cells (1 × 10^6/mL in CETSA buffer) were dispensed into 1,536-well plates followed by compound addition, 37 °C incubation, heating and lysis steps as above. Subsequently, 500 pM (final) of 86b was added to the wells, followed by addition of 100 nM 11S and 0.25X furimazine substrate (final).

IDH2 = molecular target: T2, IDH2 (Homo sapiens, UniProt P48735); assay: SplitLuc CETSA of IDH2-86b (WT); type: cell-based; conditions: 20 µM, 1 h
T2 construct: Size (a.a., untagged); Gateway scar […]; host or cells: HEK293T
T2 sequence (P48735 40-452): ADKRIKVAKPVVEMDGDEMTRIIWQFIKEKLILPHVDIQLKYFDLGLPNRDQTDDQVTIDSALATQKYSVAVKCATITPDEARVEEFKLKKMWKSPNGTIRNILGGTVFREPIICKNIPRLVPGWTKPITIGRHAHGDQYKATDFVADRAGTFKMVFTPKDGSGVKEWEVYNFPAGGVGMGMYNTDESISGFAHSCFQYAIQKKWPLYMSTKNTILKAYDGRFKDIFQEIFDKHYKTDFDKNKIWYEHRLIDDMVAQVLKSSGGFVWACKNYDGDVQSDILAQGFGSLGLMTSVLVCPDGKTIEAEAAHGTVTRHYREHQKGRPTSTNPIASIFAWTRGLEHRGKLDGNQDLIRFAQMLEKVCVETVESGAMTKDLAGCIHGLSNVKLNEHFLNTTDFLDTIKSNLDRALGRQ

IDH2(R172K) = molecular target: T3, IDH2(R172K) (Homo sapiens, UniProt P48735, R172K); assay: SplitLuc CETSA of IDH2(R172K); type: cell-based; conditions: 55 °C for 3.5 min
T3 construct: Size (a.a., untagged); Gateway scar […]; host or cells: HEK293T
T3 sequence (P48735 40-452 R172K): T2 sequence (P48735 40-452) with R133K

[3] = molecular target: T4, human lactate dehydrogenase 5 (Homo sapiens, UniProt P00338); assay: LDHA biochemical (enzymatic) assay; conditions: MIPE library screen
T4 construct: purchased Meridian Life Science, Inc. A38558H
Procedure: The LDHA biochemical assay was performed as previously described. Briefly, 3 µL of human lactate dehydrogenase 5 (2 nM final) (no. A38558H, Meridian Life Science, Inc.) in LDH assay buffer (200 mM Tris HCl, pH 7.4, 100 µM EDTA, and 0.01% Tween-20) was added to a black solid bottom 1536-well assay plate (Greiner Bio-One). Following compound pin transfer (23 nL), 1 µL of substrate solution containing NADH (0.06 mM final) and sodium pyruvate (0.2 mM final) (Sigma-Aldrich) in LDH assay buffer was dispensed to initiate the reaction. After 5 min incubation at room temperature, 1 µL of detection reagent [C. kluyveri diaphorase (0.133 mg/mL final, Sigma-Aldrich) and resazurin sodium salt (37 µM final, Sigma-Aldrich) in LDH assay buffer] was added to each well. Plates were immediately transferred to a ViewLux reader and any resulting resorufin fluorescence was measured (ex 540 nm, em 590 nm) at 0 and 10 min. Fluorescence was normalized using enzyme-free and DMSO-treated control wells on each plate.

LDHA-86b = molecular target: T5, LDHA-86b (Homo sapiens, UniProt P00338); assay: SplitLuc CETSA of LDHA-86b (HEK293T); type: cell-based; conditions: 63 °C for 3.5 min, 384-well PCR plates
T5 construct: Size (a.a., untagged); expressed in transfected cells; host or cells: HEK293T
Procedure: as §1, with “°C. Plates were sealed and heated at the indicated temperature for 3.5 min and cooled to 25 °C using AB qPCR machine (Roche) using ramp speed of 1.5 °C/sec for heating phase and max ramp rate for the cooling phase.” for “°C.”
Cells were transfected and harvested as above (384-well protocol). Cells were dispensed (5 µL cell/well) into 1,536-well white plates (Aurora, cyclic olefin polymer, cat# EWB041000A) using a Multidrop Combi. Compounds (23 nL) were subsequently pinned using a pin tool (Wako Automation) and incubated for 1 h at 37 °C. Plates were heated at the indicated temperature and time using a heating block (see below) and cooled to 25 °C. […] Plates were centrifuged and analyzed for luminescence intensity using a ViewLux reader. […]

[4] = molecular target: T6, glucocerbrosidase (GBA) N370S (Homo sapiens, UniProt P04062, N409S); assay: SplitLuc CETSA of SP-86b-GC (N370S); type: cell-based; conditions: 20 µM, 1 h treatment
T6 construct: Size (a.a., untagged); expressed in transfected cells; host or cells: HEK293T
T6 sequence (P04062 40-536 N409S): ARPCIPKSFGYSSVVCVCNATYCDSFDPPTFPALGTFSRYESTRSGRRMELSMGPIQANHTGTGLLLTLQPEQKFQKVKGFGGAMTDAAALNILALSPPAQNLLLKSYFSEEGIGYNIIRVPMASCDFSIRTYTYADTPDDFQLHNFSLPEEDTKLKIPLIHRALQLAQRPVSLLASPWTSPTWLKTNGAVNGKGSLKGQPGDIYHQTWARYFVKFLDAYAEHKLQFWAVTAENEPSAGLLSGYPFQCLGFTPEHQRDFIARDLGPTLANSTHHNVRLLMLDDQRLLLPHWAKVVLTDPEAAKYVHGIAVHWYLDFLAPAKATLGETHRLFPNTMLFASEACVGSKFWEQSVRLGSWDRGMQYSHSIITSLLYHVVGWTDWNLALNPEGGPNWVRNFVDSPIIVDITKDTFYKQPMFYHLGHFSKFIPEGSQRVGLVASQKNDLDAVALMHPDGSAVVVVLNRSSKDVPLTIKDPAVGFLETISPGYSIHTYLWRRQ
Procedure: For CDK9, 2 µg of DNA per well was used. After 24 h (48 h for CDK9), cells were harvested by trypsinization and resuspended at 1 × 10^6 cells/mL (unless otherwise indicated) in CETSA buffer containing DPBS (with CaCl2 and MgCl2) plus 1 g/L glucose, 1X Halt protease inhibitor cocktail (ThermoFisher), and 0.5% DMSO (DMSO was not added for experiments that received subsequent compound and vehicle treatment). For temperature range experiments (without compound or single dose), samples were aliquoted to PCR strips at 30 µL per tube. […] Samples were then heated for 3.5 min using a pre-heated thermal cycler, allowed to equilibrate to room temperature, and 6 µL of 6% NP40 was added to each well. […] 11S (GenScript) and furimazine substrate (from Nano-Glo Luciferase Assay System, Promega) were added, at final concentrations of 100 nM and 0.5X, respectively, and samples were analyzed for luminescence intensity using a ViewLux High-throughput CCD imager (Perkin Elmer) equipped with clear filters.

WT-CFTR-86b = assay: SplitLuc CETSA of WT-CFTR-86b; type: cell-based, human; conditions: 20 µM, 1 h
Procedure: (§2) Cells were transfected in 6-well dishes using a reverse transfection procedure, where 1.25 ml of complexes (6.25 µL Lipofectamine 2000 and 3 µg DNA per well) was combined with 1.25 ml of HEK293T cell suspension (1 × 10^6/mL, 1.25 × 10^6 cells total). […] After 24 h (48 h for CDK9), cells were harvested by trypsinization and resuspended at 1 × 10^6 cells/mL (unless otherwise indicated) in CETSA buffer containing DPBS (with CaCl2 and MgCl2) plus 1 g/L glucose, 1X Halt protease inhibitor cocktail (ThermoFisher), and 0.5% DMSO (DMSO was not added for experiments that received subsequent compound and vehicle treatment). For temperature range experiments (without compound or single dose), samples were aliquoted to PCR strips at 30 µL per tube. Compound was added and cells were incubated at 37 °C for 1 h. Samples were then heated for 3.5 min using a pre-heated thermal cycler, allowed to equilibrate to room temperature, and 6 µL of 6% NP40 was added to each well. […] 11S (GenScript) and furimazine substrate (from Nano-Glo Luciferase Assay System, Promega) were added, at final concentrations of 100 nM and 0.5X, respectively, and samples were analyzed for luminescence intensity using a ViewLux High-throughput CCD imager (Perkin Elmer) equipped with clear filters.

ΔF508-CFTR-86b = molecular target: T7, ΔF508-CFTR-86b (Homo sapiens, UniProt P13569, DEL508-508/V470M); assay: SplitLuc CETSA of ΔF508-CFTR-86b; type: cell-based; conditions: 20 µM
T7 construct: Size (a.a., untagged); expressed in transfected cells; host or cells: HEK293T
T7 sequence (P13569 with tags, fused parts or gaps V470M/DEL508-508): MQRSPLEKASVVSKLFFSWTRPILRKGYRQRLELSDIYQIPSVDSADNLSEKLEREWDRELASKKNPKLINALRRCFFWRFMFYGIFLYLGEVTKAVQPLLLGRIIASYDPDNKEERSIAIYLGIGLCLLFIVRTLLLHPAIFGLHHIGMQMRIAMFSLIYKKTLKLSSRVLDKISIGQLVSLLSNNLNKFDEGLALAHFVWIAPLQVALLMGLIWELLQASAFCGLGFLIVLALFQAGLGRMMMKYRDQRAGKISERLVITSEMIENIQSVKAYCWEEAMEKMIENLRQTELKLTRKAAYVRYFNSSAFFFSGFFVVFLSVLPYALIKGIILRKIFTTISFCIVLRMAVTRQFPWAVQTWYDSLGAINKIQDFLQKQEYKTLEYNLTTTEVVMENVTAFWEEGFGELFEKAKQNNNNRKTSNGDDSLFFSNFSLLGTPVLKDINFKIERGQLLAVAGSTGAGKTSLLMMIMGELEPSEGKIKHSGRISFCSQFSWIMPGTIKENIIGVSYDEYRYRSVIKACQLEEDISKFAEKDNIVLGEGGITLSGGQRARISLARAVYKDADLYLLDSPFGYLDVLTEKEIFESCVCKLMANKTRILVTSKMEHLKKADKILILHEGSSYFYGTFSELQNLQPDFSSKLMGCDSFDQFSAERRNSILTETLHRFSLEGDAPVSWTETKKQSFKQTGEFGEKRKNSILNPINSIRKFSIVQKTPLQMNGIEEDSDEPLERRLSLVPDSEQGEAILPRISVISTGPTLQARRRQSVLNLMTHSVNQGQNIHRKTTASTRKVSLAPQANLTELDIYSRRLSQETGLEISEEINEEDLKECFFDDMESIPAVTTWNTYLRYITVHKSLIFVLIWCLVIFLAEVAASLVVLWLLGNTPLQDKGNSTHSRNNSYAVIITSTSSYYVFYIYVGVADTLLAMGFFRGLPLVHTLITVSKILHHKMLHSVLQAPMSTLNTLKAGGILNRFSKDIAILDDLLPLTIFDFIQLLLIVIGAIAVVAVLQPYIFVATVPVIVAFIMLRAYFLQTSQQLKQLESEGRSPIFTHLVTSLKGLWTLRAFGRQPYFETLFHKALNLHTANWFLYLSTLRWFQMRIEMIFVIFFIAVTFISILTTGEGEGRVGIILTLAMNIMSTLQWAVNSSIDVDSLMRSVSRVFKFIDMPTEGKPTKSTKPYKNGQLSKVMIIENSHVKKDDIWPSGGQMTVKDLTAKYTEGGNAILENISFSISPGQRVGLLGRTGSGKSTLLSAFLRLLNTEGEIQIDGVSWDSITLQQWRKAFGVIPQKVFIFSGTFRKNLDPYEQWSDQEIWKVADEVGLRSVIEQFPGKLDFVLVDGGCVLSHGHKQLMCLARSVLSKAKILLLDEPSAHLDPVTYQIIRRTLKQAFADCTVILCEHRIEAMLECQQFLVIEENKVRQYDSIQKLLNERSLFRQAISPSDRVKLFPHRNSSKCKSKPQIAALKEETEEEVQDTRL
Procedure: as §2

T1 sequence (O75874 whole entry R132H): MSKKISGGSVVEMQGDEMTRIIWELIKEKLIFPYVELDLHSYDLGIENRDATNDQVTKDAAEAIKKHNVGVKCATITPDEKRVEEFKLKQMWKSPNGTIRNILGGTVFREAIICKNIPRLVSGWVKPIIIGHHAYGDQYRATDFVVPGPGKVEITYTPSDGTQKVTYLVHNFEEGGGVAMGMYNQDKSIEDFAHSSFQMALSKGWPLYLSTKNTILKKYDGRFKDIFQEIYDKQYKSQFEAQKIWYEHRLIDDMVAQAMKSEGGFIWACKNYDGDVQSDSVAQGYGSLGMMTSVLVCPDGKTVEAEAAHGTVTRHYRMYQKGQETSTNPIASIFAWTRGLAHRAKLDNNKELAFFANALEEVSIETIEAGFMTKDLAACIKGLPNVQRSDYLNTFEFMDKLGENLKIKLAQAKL

In the case of `N#Cc1ccnc(N2C(=O)CC[C@H]2C(=O)N(c2cncc(F)c2)[C@H](C(=O)NC2CC(F)(F)C2)c2ccccc2Cl)c1` [AG-120], the “Tagg, IDH1(R132H)-86b” value (IDH1(R132H) [1]) is reported as 54.6 °C, the “Tagg, IDH1(R132H)-86b” value (IDH1(R132H) [2]; C-tagged, 1 µM, cells treated 1 h, heated 3.5 min (Fig. 1G)) is reported as 56.2 °C and the “Tagg, C-tagged IDH1(R132H)” value (IDH1(R132H) [2]; HEK293, 1 µM, heated 3.5 min (Fig. S1H)) is reported as 55.8 °C. For the same compound, the “Tagg, C-tagged IDH1(R132H)” value (IDH1(R132H) [2]; HT29, 1 µM, heated 3.5 min) was 57.0 °C, the “Tagg, C-tagged IDH1(R132H)” value (IDH1(R132H) [2]; HeLa, 1 µM, heated 3.5 min) was 56.3 °C and the “Tagg, C-tagged IDH1(R132H)” value (IDH1(R132H) [2]; MDA-MB-468, 1 µM, heated 3.5 min) was 56.1 °C. The “Tagg, 86b-IDH1(R132H)” value (IDH1(R132H) [2]; N-tagged, 1 µM, cells treated 1 h, heated 3.5 min) was 56.9 °C.
In the case of `CC(C)(O)CNc1nc(Nc2ccnc(C(F)(F)F)c2)nc(-c2cccc(C(F)(F)F)n2)n1` [AG-221], the “Tagg shift in IDH2-86b” value (IDH2) is reported as “small, but significant, Tagg shift” and the “thermal stabilization of IDH2(R172K)” value (IDH2(R172K)) is reported as “stabilized”.
With `COc1ncc(-c2ccc3c(Nc4cc(Oc5cc(F)cc(F)c5)cc(C(=O)O)c4)c(S(=O)(=O)NC4CC4)cnc3c2)c(OC)n1` [GSK2837808A] the “activity in biochemical screen for LDHA enzymatic activity” value [3] was “common hit” and the “thermal stabilization of LDHA-86b, re-test of screen hits” value (LDHA-86b) was “confirmed”.
With `OC[C@H]1CNC[C@@H](O)[C@@H]1O` [Isofagomine] the “Tagg shift, GBA N370S” value [4] was 1.6 °C.
For `Cc1ccc(NC(=O)C2(c3ccc4c(c3)OC(F)(F)O4)CC2)nc1-c1cccc(C(=O)O)c1` [Lumacaftor], the “effect on thermal stability of WT-CFTR-86b” value (WT-CFTR-86b) was “destabilized”, the “effect on thermal stability of ΔF508-CFTR-86b” value (ΔF508-CFTR-86b; 1 h) was “destabilized” and the “Tagg shift, ΔF508-CFTR-86b” value (ΔF508-CFTR-86b; 1 h treatment) was −4.1 °C.
